Measurements reported in patent US20080280941A1, “8-Phenoxy-Gamma Carboline Derivatives” (priority 2004, published 2008).

Legend:
[1] = tested on: inflammation induced by the stimulation of the saphenous nerve; assay: Inhibition of neurogenic inflammation (plasmatic extravasation) induced by electrical stimulation of the saphenous nerve; assay type: in vivo, male Wistar rats; details: rat, 15 minutes before electrical stimulation of the saphenous nerve, Evans Blue extravasation
Experimental: The results of the pharmacological studies are given below. • 1. The inhibitory power of the molecules on inflammation induced by the stimulation of the saphenous nerve has been measured at follows 24 hours after a treatment with guanethidine (20 mg/kg, sc), the male Wistar rats (220-250 g) are anaesthetized with sodic pentobarbital (60 mg/kg, ip). The two back legs are shaved. After a cut in the upper part of the thigh, the saphenous nerve is cleared, cut, placed on a platinum electrode and immersed in a drop of paraffin oil. Only the electrode placed on the right leg is connected to a stimulator. This latter represents the “stimulated” leg by contrast to the “sham” left leg. The product (at a dosage of 5 μg/kg) or the corresponding solvent (NaCl 9 ‰-DMSO) are administrated via the jugular vein, 15 minutes before the electrical stimulation (ES). A plasmatic marker, Evans Blue (20 mg/kg iv) is administered through the penis vein 5 minutes before the ES. The saphenous nerve is stimulated according to the following conditions: 3V; 5 Hz; 1 ms; 5 minutes (Harvard stimulator). At the end of the ES, a blood sample is realized by cardiac puncture and the skin of the edema of each leg (visualized by the extravasation of the Evans Blue) is sampled and weighted later. The animals are killed by anaesthetical overdose. The blood samples are centrifuged (3,000 rotations/minute, during 15 minutes). […] The Evans Blue is measured in the plasma and after extraction of the skin biopsies by a spectrophotometrical method, at 620 nm. […] The vascular contractile response has been measured with saphenous vein rings of rabbits (new Zealand, 2.5 to 3 kg) bound to a sensor, installed in organs baths (EMKA Technologies), containing a physiological Krebs-[…] solution. […] The vasoconstrictive effect of the molecules with increasing concentrations is evaluated with saphenous vein rings contracted in an intermediate manner with 40 mmol/l KCl and treated with 0.5 μmol/l pargyline, an inhibitor of monoamine oxydase. The results are expressed as percent of the maximum effect induced by serotonine at 1 μmol/l. […]

[2] = target: 5HT1B/5HT1D receptors of isolated membranes of bovine nuclear caudal; assay: Binding on 5HT1B/5HT1D receptors, shifting of [3H]5-carboxamidotryptamine; details: 100 nmol/l 8-OH-DPAT and 100 nM mesulergine
Experimental: (§1) 24 hours after a treatment with guanethidine (20 mg/kg, sc), the male Wistar rats (220-250 g) are anaesthetized with sodic pentobarbital (60 mg/kg, ip). The two back legs are shaved. After a cut in the upper part of the thigh, the saphenous nerve is cleared, cut, placed on a platinum electrode and immersed in a drop of paraffin oil. Only the electrode placed on the right leg is connected to a stimulator. This latter represents the “stimulated” leg by contrast to the “sham” left leg. The product (at a dosage of 5 μg/kg) or the corresponding solvent (NaCl 9 ‰-DMSO) are administrated via the jugular vein, 15 minutes before the electrical stimulation (ES). A plasmatic marker, Evans Blue (20 mg/kg iv) is administered through the penis vein 5 minutes before the ES. The saphenous nerve is stimulated according to the following conditions: 3V; 5 Hz; 1 ms; 5 minutes (Harvard stimulator). […] The Evans Blue is measured in the plasma and after extraction of the skin biopsies by a spectrophotometrical method, at 620 nm. […] The vascular contractile response has been measured with saphenous vein rings of rabbits (new Zealand, 2.5 to 3 kg) bound to a sensor, installed in organs baths (EMKA Technologies), containing a physiological Krebs-Henseileit solution. […] The vasoconstrictive effect of the molecules with increasing concentrations is evaluated with saphenous vein rings contracted in an intermediate manner with 40 mmol/l KCl and treated with 0.5 μmol/l pargyline, an inhibitor of monoamine oxydase. The results are expressed as percent of the maximum effect induced by serotonine at 1 μmol/l. […] The binding on the 5HT1B/5HT1D receptors of isolated membranes of bovine nuclear caudal has been measured by measuring the shifting of 5 nmoml/l of [^3H]5-carboxamidotryptamine by increasing concentrations of the molecule in the presence of 100 nmol/l of 8-OH-dipropylaminotetralin (8-OH-DPAT) in order to mask the 5HT1A receptors and in the presence of 100 nM of mesulergine in order to mask the 5HT2 receptors.

[3] = target: T1, 5HT1A receptors of isolated membranes of rat brain (Rattus norvegicus, UniProt P19327); assay: Binding to 5HT1A receptors, shifting of [3H]8-OH-DPAT; details: 100 nmol/l mesulergine
T1 construct: isolated membranes of rat brain; from tissue; host or cells: rat brain membranes
T1 sequence (P19327 1-422): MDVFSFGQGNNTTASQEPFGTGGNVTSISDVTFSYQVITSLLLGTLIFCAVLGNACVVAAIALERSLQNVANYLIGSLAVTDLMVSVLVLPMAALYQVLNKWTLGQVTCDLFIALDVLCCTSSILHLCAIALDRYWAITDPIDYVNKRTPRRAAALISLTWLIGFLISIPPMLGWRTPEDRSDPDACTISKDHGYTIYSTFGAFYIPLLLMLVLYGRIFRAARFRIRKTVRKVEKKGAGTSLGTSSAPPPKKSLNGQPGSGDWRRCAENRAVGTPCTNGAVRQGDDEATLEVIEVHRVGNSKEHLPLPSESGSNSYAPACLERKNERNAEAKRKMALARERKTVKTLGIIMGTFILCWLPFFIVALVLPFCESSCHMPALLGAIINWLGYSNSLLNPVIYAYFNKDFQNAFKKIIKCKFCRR

[4] = tested on: saphenous vein rings of rabbits; assay: Vascular contractile response of isolated saphenous vein rings; set-up: species or system rabbits (new Zealand); details: rabbit saphenous vein rings, percent of the maximum effect induced by serotonine at 1 μmol/l
Experimental: as §1

| IC50 [2] [µM] | IC50 [3] [µM] | melting point [°C] | SMILES | Neuro. Inf. Inhib. (%) 5 μg/kg iv [1] [%] | Contraction. Saph. Vein 10^−6 mol/l (%) [4] [%] |
| --- | --- | --- | --- | --- | --- |
| 10 | 30 |  | c1ccc(Oc2ccc3[nH]c4c(c3c2)CNCC4)cc1 [Example 1, 8-Phenoxy-2,3,4,5-tetrahydro-1H-pyrido[4,3-b]indole] | 65 | 0 |
| > 10 | > 10 | 102.3 | c1ccc(CN2CCc3[nH]c4ccc(Oc5ccccc5)cc4c3C2)cc1 [Example 2, 8-Phenoxy-N-benzyl-2,3,4,5-tetrahydro-1H-pyrido[4,3-b]indole] | 60 | 0 |
| > 5 | > 5 |  | Cl.c1ccc(CN2CCc3[nH]c4ccc(Oc5ccccc5)cc4c3C2)cc1 [Example 3, 8-Phenoxy-N-benzyl-2,3,4,5-tetrahydro-5H-pyridinium[4,3-b]indole-hydrochloride] | 80 | 0 |
